How the values were obtained:
[1] = tested on: APTK-s.c. tumors; assay: subcutaneous APTK tumors, UA-supplemented diet; type: in vivo, C57BL/6 mice
Procedure: Tumors were minced and digested with Tumor & Tissue Dissociation Reagent (BD Horizon) for 30 min. The remaining organ pieces were filtered through a 70 μm cell strainer. Cells were then washed with PBS 1% BSA and 2 mM EDTA. Immune cells were enriched on a 30%/40%/75% Percoll gradient after a 1700 rpm 17 min centrifugation. Then, tumor immune filtrates or activated T cells were stained with Fixable Viability Dye-eF780 (65-0865-14; eBioscience), αCD45-FITC (30-F11; 11-0451-85; eBioscience), αCD11b-BV650 (M1/70; 56340; BD) α-CD11C-BV785 (HL3; 563735; BD), αLy6G-BV605 (53-6.7; 563005; BD), αLy6C-AF700 (HK1.4; 128024; Biolegend), αF4/80-PE (BM8; 12-4801-82, eBioscience), αPD-L1-PECy7 (MIH5; 25-5982-80, eBioscience); or with Fixable Viability Dye-eF780 (ebioscience), αCD45-BV786 (30-F11; 564225; BD), αCD4-BUV496 (GK1.5; 564667; BD), αCD8-BV605 (100744; Biolegend), αPD1-APC (J43; 17-9985-82; eBioscience), αTIM-3-PECy7 (RMT3-23; 119715; Biolegend), αCTLA4-PE (UC10-4B9; 106305; Biolegend) and αLag3-BV421 (C9B7W; 125221, Biolegend); or with Fixable Viability Dye-eF780 (eBioscience), αCD4-FITC (H129.19; 553650; BD), αCD8-APC (53-6.7; 17-0081-83; eBioscience), αCD44-AF400 (IM7; 103026; Biolegend), αCD62L-BV785 (MEL-14; 104440; Biolegend), αSca-1-PerCP-Cy5.5 (D7; 45-5981-82; eBioscience), αCD95-PE (Jo2; 554258; BD); or with Fixable Viability Dye-eF780 (eBioscience), αCD8-BV650 (53-6.7; 563234; BD), αCD4-BUV496 (GK1.5; 564667; BD), αCD127-APC (A7R34; 17-1271-82; eBioscience), αCD95-FITC (SA367H8; 152605; Biolegend), αCD44-AF400 (IM7; 103026; Biolegend), αCD62L-BV785 (MEL-14; 104440; Biolegend), αSca-1-PerCP-Cy5.5 (D7; 45-5981-82; eBioscience) followed by intracellular staining of αTCF1-PE (S33-966; 564217; BD), or PGC-1α (sc-518025; D-5; santa cruz), or αCyclinD1 (MA5-28534, DCS-6; Invitrogen) with transcription factor buffer set kit (BD Biosciences). To study cytokine expression, tumor immune infiltrates were stimulated ex vivo with 20 ng/ml PMA and 1 μg/ml Ionomycin (Sigma) for 3 h in T cell activation medium with Brefeldin A (Biolegend).

[2] = tested on: CEA-expressing human CRC organoids; assay: CEA-CAR T cell killing of CRC organoids; type: cell-based; conditions: 72 h co-culture, UA vs DMSO
Procedure: In human CRC organoids, CEA-expression was confirmed by flow cytometry […]CEACAM5-APC (487609; FAB41281A; R&D Systems) Before co-culture, CEA-CAR T cells were cultivated in presence or absence of UA for three days. The cytotoxicity assay was performed as described (Schnalzger et al., 2019), using 96 well plates coated with 15 μl Cultrex Basement Membrane Extract, Type 2 per well and organoids were seeded at a ratio of 1:8. Co-culture was performed for three days with 0.5×10^4 CAR T cells per well resuspended in organoid medium (as described above) without IL7/IL15. 100 μl luciferase assay reagent composed of 10% One-Glo EX Reagent (Promega) in lysis buffer (50 mM NaCl, 50 mM Tris-HCl pH 7.4, 1% Triton X-100) was added to each well and incubated at room temperature for 1 h protected from light. 100 μl of each sample was transferred to an opaque 96-well microtiter plate and measured using a SpectraMax iD3 microplate reader (Molecular Devices).

[3] = tested on: OT-1 T cells; assay: adoptive transfer of UA-treated OT-1 T cells, engraftment; type: in vivo, Rag1^−/− mice; conditions: seven days after transfer of T cells stimulated 48 h with UA (25 μM) vs DMSO
Excerpt: Adoptive cell transfer (ACT) represents the infusion of antigen-specific leukocytes with direct antitumor activity, yet identification, selection and expansion of lymphocyte subsets harboring optimal antitumor qualities remains one of the most crucial challenges (Rosenberg and Restifo, 2015). ACT benefits especially from minimally differentiated cells due to their improved survival and long-term potential to generate unexhausted effector cells (Luca Gattinoni et al; Mo et al., 2021; Roberto et al., 2015). In particular, CD8^+ T cells restricted in a stem-like state have been associated with enhanced tumor suppressive properties upon adoptive cell transfer (Enrico Lugli et al; Verma et al., 2021). […] The inventors cultured T cells from OT-1 donor mice (FIG. 3A) for 48 hours in the presence of UA or vehicle control, followed by adoptive transfer into immunodeficient Rag1^−/− mice. […] Moreover, consistent with an improved memory response, animals receiving UA-pretreated T cells contained less Tim3^HiPD1^Hi terminally exhausted CD8^+ T cells in the TME (FIG. 3I). Thus, UA augments immune-mediated antitumor memory upon adoptive cell transfer.
For adoptive cell transfer transfer, purified splenic T cell from OT1 mice were isolated and activated using aCD3/aCD28 stimulation beads for 48 h. […] Tumor growth was assessed as described above. […]

[4] = restimulated with PMA/ionomycin ex vivo

Structure (SMILES): O=c1oc2cc(O)ccc2c2ccc(O)cc12 [UA, Urolithin A]
- mitochondrial content in TIL of APTK tumors ([1]; CD8+ TIL, UA vs control diet): increased
- CD4+ TSCM in APTK-induced tumors ([1]; UA-containing vs control diet): no change
- TCF1 expression in tumor infiltrating CD8+ T cells ([1]; UA-containing vs control diet): increased expression
- dendritic cells (DCS), TAMs, or MDSC subsets in TME ([1]; UA-containing vs control diet): no change
- CD8+CD44loCD62LhiSca1hi T cells in APTK-induced tumors ([1]; UA-containing vs control diet, CD8+ TIL): marked increase
- exhaustion marker CTLA-4 in CD8+ T cells ([1]; UA-fed mice, CD8+ TIL): reduction
- exhaustion marker PD-1 in CD8+ T cells ([1]; UA-fed mice, CD8+ TIL): reduction
- exhaustion marker Tim3 in CD8+ T cells ([1]; UA-fed mice, CD8+ TIL): reduction
- CD8+ T cell infiltration in tumors ([1]; UA-supplemented diet vs control food): enhanced
- induction of IFNg in tumor infiltrating CD8+ T cells [1, 4]: stronger induction
- induction of TNFa in tumor infiltrating CD8+ T cells [1, 4]: stronger induction
- killing efficacy of CEA-expressing human CRC organoids [2]: comparable killing efficacy
- number of engrafted (splenic) CD8+ T cells [3]: significantly higher

— patent US20260069693A1, “UROLITHINS AND T-CELL MEDIATED IMMUNE RESPONSE” (priority 2022, published 2026)
